Source: PMC6426982, “Anti-alcohol abuse drug disulfiram inhibits human PHGDH via disruption of its active tetrameric form through a specific cysteine oxidation” (Scientific Reports, 2019)
Changes are numbered by the printed parent chain. Read-outs that look alike come from different tables or passages of the source.

Experiments:
[1] = molecular target: T1, PHGDH (Homo sapiens, UniProt O43175); assay: Rapid dilution assay; format: biochemical; details: DSF 50 µM (Fig. 1B)
T1 construct: peptides including 12 out of the 13 Cys residues of the full length PHGDH could be identified and tracked; made in house; host or cells: Escherichia coli BL21
T1 sequence (O43175 1-533): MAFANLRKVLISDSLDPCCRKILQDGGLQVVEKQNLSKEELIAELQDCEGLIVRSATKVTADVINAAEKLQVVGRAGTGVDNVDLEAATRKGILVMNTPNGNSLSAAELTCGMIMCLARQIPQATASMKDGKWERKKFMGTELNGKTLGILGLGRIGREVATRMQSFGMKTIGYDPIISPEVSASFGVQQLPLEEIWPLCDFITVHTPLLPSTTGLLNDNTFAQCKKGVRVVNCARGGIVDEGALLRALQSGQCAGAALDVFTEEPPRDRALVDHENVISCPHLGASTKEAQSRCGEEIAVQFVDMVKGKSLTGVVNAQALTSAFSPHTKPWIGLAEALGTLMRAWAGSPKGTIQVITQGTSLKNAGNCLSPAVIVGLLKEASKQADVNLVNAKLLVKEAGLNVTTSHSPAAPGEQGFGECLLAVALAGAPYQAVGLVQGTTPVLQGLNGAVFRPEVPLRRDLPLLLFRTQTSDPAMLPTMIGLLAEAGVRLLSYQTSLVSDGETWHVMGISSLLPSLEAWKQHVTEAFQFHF
Experimental: (§1) Figure 1 Characterization of PHGDH inhibition by DSF. Residual activity percentage of PHGDH (A) upon incubation with DSF (50 µM) for the indicated times and (B) after the rapid dilution assay experiment with DSF (50 µM). All experiments values were performed in triplicates at each compound dilution and error bars show the standard deviation. Data were collected at 37 °C with a PHGDH concentration of 12 ng/µL in 50 mM Tris and 1 mM EDTA at pH 8.5.
Dilution experiment was conducted following a reported procedure. DSF (5 μM) or DMSO control was incubated with PHGDH for 45 min at 37 °C. Undiluted DSF (5 μM) was included as a positive control for inhibition.

[2] = molecular target: T1, PHGDH; assay: Cross-linking experiment with BS3 (oligomeric state); details: DSF 1-500 µM, 30 min, BS3 cross-linker
Experimental: PHGDH (3 μg) was incubated with DSF (1 µM, 5 µM, 10 µM, 50 μM, 100 μM, 250 µM, 500 μM) or vehicle control (DMSO) in 25 mM HEPES, pH 7.3, and 1 mM NAD^+ in 18 μL total volume for 30 min on ice. BS3 (S5799; Sigma) cross-linker dissolved in PBS was added to a final concentration of 5 mM and incubated for 30 min under shaking at room temperature. The reaction was then quenched for 15 min by adding 1 M Tris, pH 7.5, to a final concentration of 28 mM. Cross-linked proteins were mixed with sample buffer, boiled for 5 min, and run on SDS/PAGE. Gels were stained with Gelcode blue stain reagent (24592; Thermo) overnight and destained according to the manufacturer’s instructions.

[3] = molecular target: T2, PHGDH cysteine residues (Homo sapiens, UniProt O43175); assay: nanoUHPLC/MS of tryptic PHGDH peptides after DSF treatment (cysteine modification)
T2 construct: peptides including 12 out of the 13 Cys residues of the full length PHGDH could be identified and tracked; made in house; host or cells: Escherichia coli BL21
T2 sequence (O43175 1-533): T1 sequence (O43175 1-533)
Experimental: To unambiguously confirm this hypothesis and possibly identify the cysteine residues involved in this interaction, mass spectrometry experiments were undertaken. Briefly, PHGDH was incubated for 30 min with various concentrations of disulfiram (0.1x IC50, 1x IC50 and 10x IC50). At the end of the incubation, chloroacetamide was added and incubated 15′ in large excess in order to block the remaining free cysteines residues for the following analysis. The protein was separated from the medium (removal of the remaining chloroacetamide and DSF by liquid/liquid extraction with CHCl3/H2O) followed by trypsinization and analysis of the peptides by nanoUHPLC/MS.
Mass spectrometry experiments were carried out on an Orbitrap Lumos, following a previously reported procedure, with some modifications. A local protein database containing the human PHGDH sequence (accession Uniprot O43175) was used to process the obtained MS/MS data. Mass error was set to 15 ppm for precursor ions and 0.6 Da for fragment ions. Oxidation on Met; disulfiram, (+147.025 Da) and carbamidomethyl (+57.021 Da) were considered as variable modifications on Cys.

[4] = molecular target: T3, human PHGDH (wild type) (Homo sapiens, UniProt O43175); assay: PHGDH isolated enzyme inhibition assay (NADH fluorescence), wild type; format: biochemical
T3 construct: peptides including 12 out of the 13 Cys residues of the full length PHGDH could be identified and tracked; made in house; host or cells: Escherichia coli BL21
T3 sequence (O43175 1-533): T1 sequence (O43175 1-533)
Experimental: Enzymatic assay was adapted from a previously described procedure. […] Assays were performed in PHGDH assay buffer (50 mM Tris, pH 8.5, and 1 mM EDTA). […] The final concentration of DMSO in the assay mixture was set to 5%.
pET28a human PHGDH and pET28a human C116S PHGDH were transformed into BL21 Escherichia coli. A single colony was grown to an OD600 0.6 in 1 L of Luria broth. Protein expression was induced with 1 mM isopropyl thiogalactopyranoside (IPTG). […] Pellets were resuspended in 60 mL of lysis buffer (50 mM Tris, pH 8.5, 10 mM MgCl2, 300 mM NaCl, 10% glycerol, 5 mM imidazole) and sonicated, and cell debris were pelleted by centrifugation (20,000 × g, 30 min). The supernatant was collected and purified using Akta purifier on HisTrap^TM FF column (GE Healthcare). […] Fraction protein content was measured via a Bradford assay. […] Protein purity was assessed via SDS/PAGE and Coomassie staining.

[5] = test system: UM-UC-3-PHGDH- cells; assay: Cell proliferation inhibition (Presto Blue), cells not expressing PHGDH; format: cell-based; details: Homo sapiens, UMUC3, serine depleted media, 48 hours
Experimental: (§2) UM-UC-3 (PHGDH+ and PHGDH-) bladder cancer cells were purchased from the ATCC and cultured in DMEM medium supplemented with 10% heat-inactivated Fetal Bovine Serum (FBS) and 1% penicillin/streptomycin. Cells were seeded at 2500 cells/well in 96-well plates in serine depleted media (MEM). DSF or vehicle (DSMO) was added and cells were grown for 48 hours. Viability was assessed using Presto Blue reagent (Life Technologies) according to manufacturer’s instructions.

[6] = test system: UM-UC-3-PHGDH+ cells; assay: Cell proliferation inhibition (Presto Blue), PHGDH-expressing cells; format: cell-based, human
Experimental: as §2

[7] = cited from earlier work
[8] = molecular target: T4, human PHGDH C116S mutant (Homo sapiens, UniProt O43175, C116S); assay: PHGDH enzyme inhibition assay, C116S mutant; format: biochemical
T4 construct: peptides including 12 out of the 13 Cys residues of the full length PHGDH could be identified and tracked; made in house; host or cells: Escherichia coli BL21
T4 sequence (O43175 1-533 C116S): T1 sequence (O43175 1-533) with C116S
Experimental: (§3) Enzymatic assay was adapted from a previously described procedure. NADH fluorescence emission (Ex 340 nm/Em 460 nm) was followed over time. Assays were performed in PHGDH assay buffer (50 mM Tris, pH 8.5, and 1 mM EDTA). Substrates and enzyme concentrations were as follows: 3-PG, 240 μM; NAD^+, 120 μM; glutamate, 30 mM; PHGDH, 12 ng/μL; PSAT1, 20 ng/μL. The final concentration of DMSO in the assay mixture was set to 5%.
pET28a human PHGDH and pET28a human C116S PHGDH were transformed into BL21 Escherichia coli. A single colony was grown to an OD600 0.6 in 1 L of Luria broth. Protein expression was induced with 1 mM isopropyl thiogalactopyranoside (IPTG). The culture was chilled on ice for 30 min, cultured for 18 h at room temperature and pelleted (6,000 g, 20 min). Pellets were resuspended in 60 mL of lysis buffer (50 mM Tris, pH 8.5, 10 mM MgCl2, 300 mM NaCl, 10% glycerol, 5 mM imidazole) and sonicated, and cell debris were pelleted by centrifugation (20,000 × g, 30 min). The supernatant was collected and purified using Akta purifier on HisTrap^TM FF column (GE Healthcare). […] Fraction protein content was measured via a Bradford assay. […] Protein purity was assessed via SDS/PAGE and Coomassie staining.

[9] = molecular target: T1, PHGDH; assay: Incubation assay (time-dependent PHGDH inhibition); format: biochemical; details: DSF 50 µM, 45 min incubation, 37 °C, Fig. 1A; read-out: PHGDH inhibition after incubation
Experimental: as §1, §3

[10] = molecular target: T3, human PHGDH (wild type); design: method as in PMID 28085281; details: drug screening campaign in the authors' lab; cited from earlier work

SMILES: CCN(CC)C(=S)SSC(=S)N(CC)CC [DSF, bis(diethylthiocarbamoyl) disulfide]
- PHGDH activity after rapid dilution of the enzyme/inhibitor complex [1]: not restored
- oligomeric state of PHGDH after DSF treatment [2]: concentration-dependent shift from the tetrameric to the dimeric, and to a lesser extent to the monomeric, form
- Percentage of modified peptides, C111 ([3]; DSF 0.05 µM, peptide 91-119): 4.87%
- Percentage of modified peptides, C116 ([3]; DSF 0.05 µM, peptide 91-119): 9.75%
- Percentage of modified peptides, C111 ([3]; DSF 0.05 µM, peptide 92-119): 1.92%
- Percentage of modified peptides, C116 ([3]; DSF 0.05 µM, peptide 92-119): 7.69%
- Percentage of modified peptides, C116 ([3]; DSF 0.5 µM, peptide 91-119 (Ox M)): 7.14%
- Percentage of modified peptides, C111 ([3]; DSF 0.5 µM, peptide 92-119): 6.67%
- Percentage of modified peptides, C116 ([3]; DSF 0.5 µM, peptide 92-119): 46.67%
- Percentage of modified peptides, C111 ([3]; DSF 5 µM, peptide 91-119): 4.16%
- Percentage of modified peptides, C116 ([3]; DSF 5 µM, peptide 91-119): 50.00%
- Percentage of modified peptides, C111 ([3]; DSF 5 µM, peptide 92-119): 10.34%
- Percentage of modified peptides, C116 ([3]; DSF 5 µM, peptide 92-119): 39.65%
- Percentage of modified peptides, C281 ([3]; DSF 5 µM, peptide 271-289): 1.26%
- IC50 ([4]; Wild Type PHGDH, Table 2, read-out: PHGDH inhibition (IC50)): 590 nM
- IC50 ([4]; purified PHGDH, triplicates, Table 1, read-out: PHGDH inhibition (IC50)): 590 nM
- IC50 ([4]; with Triton X 0.01%, Fig. S1B, read-out: IC50 on PHGDH WT): 490 nM
- IC50 ([4]; without Triton X, Fig. S1A, read-out: IC50 on PHGDH WT): 530 nM
- IC50 [5]: 3.64 µM
- IC50 ([6]; Homo sapiens, UMUC3, 48 h, UM-UC-3 +PHGDH, serine depleted media, 48 hours): 775 nM
- difference in proliferation IC50 between PHGDH- and PHGDH+ cells ([6]; UM-UC-3-PHGDH- versus UM-UC-3-PHGDH+): ~ 5 fold
- Cmax ([7]; reported, read-out: maximum plasma concentration (Cmax)): 1280 nM
- elimination half-life ([7]; single-dose administration of 250 mg of DSF): 7.3 h
- decrease in inhibitory potency on C116S mutant versus wild type enzyme [8]: 20 fold
- IC50 ([8]; C116S mutant, Table 2): 10.2 µM
- inhibition at 50 µM [9]: 100%
- IC50 [10]: 590 nM

SMILES: CCN(CC)C(=S)[S][Cu][S]C(=S)N(CC)CC [CuET, bis(diethyldithiocarbamate)–copper]
- IC50 ([4]; wild type PHGDH 12 ng/µL, 37 °C, pH 8.5, Fig. 2, read-out: PHGDH inhibition (IC50)): ~10000 nM
- fold weaker IC50 compared to DSF ([4]; wtPHGDH): about 16 fold
